Common to all, as to type: binding
In one experiment the test system is CRF1, CRF2. Briefly: Displacement of 125I labeled CRF from CRF receptor subtypes, recombinant cells. As to conditions: Receptor CRF1, CRF2 (one value printed for both), displacing radiolabeled CRF. As to the method: (§1) Determination of IC50 for labeled peptides. […] In order to fully dissolve the peptide, the sample was reconstituted in 20 uL DMSO, vortexing well to ensure that all powder was completely dissolved, and then adding 0.48 mL of double distilled water. The stock solution was aliquoted to avoid repeated freezing and thawing of peptide. Unused aliquots were stored at −20° C. (protected from light) for maximum 24 hr.
(§2) Data for native and labeled peptides were analyzed by non-linear curve fitting. This included statistical evaluation of fit and calculation of IC50 and Ki values.
On the technique in general: Displacement assays read how much labelled ligand stays bound in the presence of the test substance.

Another experiment concerns the target T1, CRF2 (Homo sapiens, UniProt Q13324).
T1 construct: expressed in transfected cells
T1 sequence (Q13324 1-411): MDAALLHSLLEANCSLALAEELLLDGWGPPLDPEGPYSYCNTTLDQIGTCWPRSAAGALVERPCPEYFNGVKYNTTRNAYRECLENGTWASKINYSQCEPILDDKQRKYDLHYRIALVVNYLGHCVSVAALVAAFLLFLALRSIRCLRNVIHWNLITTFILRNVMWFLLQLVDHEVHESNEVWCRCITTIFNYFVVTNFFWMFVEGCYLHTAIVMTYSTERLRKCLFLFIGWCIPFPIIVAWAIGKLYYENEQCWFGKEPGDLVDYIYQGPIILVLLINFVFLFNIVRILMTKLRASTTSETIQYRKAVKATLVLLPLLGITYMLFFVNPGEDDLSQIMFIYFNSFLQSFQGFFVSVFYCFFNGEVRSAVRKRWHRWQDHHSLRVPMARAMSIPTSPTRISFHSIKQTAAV
Briefly: Displacement of 125I labeled sauvagine from CRF2, recombinant cells. As to the method:
as §1, §2

In another experiment the target is T2, CRF1 (Homo sapiens, UniProt P34998).
T2 construct: expressed in transfected cells
T2 sequence (P34998 24-415): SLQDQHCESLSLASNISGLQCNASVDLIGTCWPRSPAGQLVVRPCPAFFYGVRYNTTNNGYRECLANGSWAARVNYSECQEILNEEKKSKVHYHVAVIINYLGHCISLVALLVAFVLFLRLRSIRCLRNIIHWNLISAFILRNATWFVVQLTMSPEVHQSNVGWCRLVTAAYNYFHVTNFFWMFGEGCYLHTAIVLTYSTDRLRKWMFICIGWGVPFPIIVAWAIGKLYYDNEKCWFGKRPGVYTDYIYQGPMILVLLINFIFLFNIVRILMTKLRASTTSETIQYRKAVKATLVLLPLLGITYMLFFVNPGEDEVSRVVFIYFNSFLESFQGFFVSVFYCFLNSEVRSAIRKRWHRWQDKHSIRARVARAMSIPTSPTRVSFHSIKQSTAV
The experiment in a line: Displacement of 125I labeled sauvagine from CRF1, recombinant cells. As to the method: as §1, §2

Here are results for 3 compounds from US6680367B1, “Fluorescent CRF receptor-binding peptides” (Advanced Bioconcept Company, priority 1995, dated 2004).

Peptide text beside a SMILES is read from it. GABA = NCCCC(=O)O

By Ki is commonly meant a dissociation constant, usually derived from enzyme kinetics or from competition with a known ligand. For “fluoresceinyl-sauvagine ({Fluorescein-GABA}-GPPISIDLSLELLRKMIEIEKQEKEKQQAANNRLLLDTI-NH2; listed as Xenopus tropicalis) [Fluo*-sauvagine]”, the Ki in the experiment with CRF1, CRF2 was found to be 3.8 nM.

As for `CC[C@H](C)[C@H](NC(=O)[C@H](CO)NC(=O)[C@H](CC(C)C)NC(=O)[C@H](CO)NC(=O)[C@@H]1CCCN1C(=O)[C@H](CC(N)=O)NC(=O)[C@@H](N)CC(=O)O)C(=O)N[C@@H](CC(=O)O)C(=O)N[C@@H](CC(C)C)C(=O)N[C@H](C(=O)N[C@@H](Cc1ccccc1)C(=O)N[C@@H](Cc1cnc[nH]1)C(=O)N[C@@H](CC(C)C)C(=O)N[C@@H](CC(C)C)C(=O)N[C@@H](CCCNC(=N)N)C(=O)N[C@H](C(=O)N[C@@H](CC(C)C)C(=O)N[C@@H](CC(C)C)C(=O)N[C@@H](CCC(=O)O)C(=O)N[C@@H](CC(C)C)C(=O)N[C@@H](C)C(=O)N[C@@H](CCCNC(=N)N)C(=O)N[C@H](C(=O)N[C@@H](CCC(N)=O)C(=O)N[C@@H](CO)C(=O)N[C@@H](CCC(N)=O)C(=O)N[C@@H](CCCNC(=N)N)C(=O)N[C@@H](CCC(=O)O)C(=O)N[C@@H](CCCNC(=N)N)C(=O)N[C@@H](C)C(=O)N[C@@H](CCC(=O)O)C(=O)N[C@@H](CCC(N)=O)C(=O)N[C@@H](CC(N)=O)C(=O)N[C@@H](CCCNC(=N)N)C(=O)N[C@H](C(=O)N[C@H](C(=O)N[C@@H](Cc1ccccc1)C(=O)N[C@@H](CC(=O)O)C(=O)N[C@@H](CO)C(=O)N[C@H](C(N)=O)C(C)C)[C@@H](C)CC)[C@@H](C)CC)[C@@H](C)O)[C@@H](C)O)[C@@H](C)O` [urocortin] (H-DNPSLSIDLTFHLLRTLLELARTQSQRERAEQNRIIFDSV-NH2), the Ki amounted to 4.3 nM on CRF2 and 0.64 nM on CRF1.

Consider `CC[C@H](C)[C@H](NC(=O)[C@@H](NC(=O)[C@H](CC(=O)O)NC(=O)[C@H](CC(C)C)NC(=O)[C@H](CC(C)C)NC(=O)[C@H](CC(C)C)NC(=O)[C@H](CCCNC(=N)N)NC(=O)[C@H](CC(N)=O)NC(=O)[C@H](CC(N)=O)NC(=O)[C@H](C)NC(=O)[C@H](C)NC(=O)[C@H](CCC(N)=O)NC(=O)[C@H](CCC(N)=O)NC(=O)[C@H](CCCCN)NC(=O)[C@H](CCC(=O)O)NC(=O)[C@H](CCCCN)NC(=O)[C@H](CCC(=O)O)NC(=O)[C@H](CCC(N)=O)NC(=O)[C@H](CCCCN)NC(=O)[C@H](CCC(=O)O)NC(=O)[C@@H](NC(=O)[C@H](CCC(=O)O)NC(=O)[C@@H](NC(=O)[C@H](CCSC)NC(=O)[C@H](CCCCN)NC(=O)[C@H](CCCNC(=N)N)NC(=O)[C@H](CC(C)C)NC(=O)[C@H](CC(C)C)NC(=O)[C@H](CCC(=O)O)NC(=O)[C@H](CC(C)C)NC(=O)[C@H](CO)NC(=O)[C@H](CC(C)C)NC(=O)[C@H](CC(=O)O)NC(=O)[C@@H](NC(=O)[C@H](CO)NC(=O)[C@@H](NC(=O)[C@@H]1CCCN1C(=O)[C@@H]1CCCN1C(=O)CNC(=O)[C@@H]1CCC(=O)N1)[C@@H](C)CC)[C@@H](C)CC)[C@@H](C)CC)[C@@H](C)CC)[C@@H](C)O)C(N)=O` [Sauvagine, sauvagine], for which, in the experiment with CRF1, CRF2, the Ki is 7.9 nM.
